Assay results: US7342133B2, “Substituted amino compounds as 5-HT/NA uptake inhibitors” (Gruenenthal GmbH, priority 2004, dated 2008)

Columns and labels:
[1] = system: duration of the phase of immobility; experiment: Antidepressant activity in the forced swimming test (Porsolt test) in the mouse; format: in vivo; conditions: for Relative duration of the phase of immobility versus control: i.p.
Procedure: d) Study of Antidepressant Activity in the Forced Swimming Test (Porsolt Test) in the Mouse The studies to determine the antidepressant activity of the compounds of formula I according to the invention were carried out in the forced swimming test (Porsolt test) in the mouse (Porsolt, R. et al., Arch. Int. Pharmacodyn. Vol. 229, p. 327-336 (1977)). Male mice (20-25 g body weight) were placed individually for a period of 6 minutes into a flat water tank from which they were unable to escape and accordingly were forced to swim. After some time, the animals gave up their attempts to swim and entered a phase of immobility. In the interval of from 2 to 6 minutes after introduction of the animal, the duration of the phase of immobility was determined. Test substance and vehicle groups each comprise 10 animals. Changes in the duration of the phase of immobility are stated relative to the vehicle control. Antidepressants induce a shortening of the phase of immobility.

[2] = system: 5-HT reuptake; experiment: Inhibition of 5-HT reuptake in rat brain synaptosomes (P2 fraction, medulla + pons region); format: biochemical; conditions: for Ki: medulla + pons, Ki from IC50 by Cheng-Prusoff
Procedure: (§1) a) Studies of the inhibition of 5-HT and NA reuptake
(§2) In order to be able to carry out these in vitro studies, synaptosomes are freshly isolated from areas of rat brain. A so-called “P2” fraction is used in each case, which is prepared exactly according to the procedure of Gray, E. G. and Whittaker, V. P. (J. Anat. 76, 79-88, 1962). For NA reuptake, these vesicular particles are isolated from the hypothalamus of male rat brains, and for 5-HT reuptake, they are isolated from the medulla +pons region.
(§3) The following characteristic data were determined for the NA and 5-HT reuptake: • NA uptake: Km=0.32±0.11 μM • 5-HT uptake: Km=0.084±0.011 μM (in each case N=4, i.e. mean values ± SEM from 4 independent test series which were carried out in triplicate parallel tests).
(§4) A detailed description of the method can be found in the publication of Frink, M., Hennies, H. H., Englberger, W. et al. (Arzneim.-Forsch./Drug Res. 46 (III), 11, 1029-1036, 1996) (the batch can also be carried out on microtitre plates (250 μl/well) at room temperature).
(§5) In addition to % inhibitions at fixed concentrations of test substance (e.g. 1×10^−6 M or 1×10^−5 M in the batch), dose dependencies were also checked. IC50 values were obtained thereby which can be converted into inhibitor constants (Ki) according to the “Cheng-Prusoff equation” (Cheng, Y. C. and Prusoff, W. H., Biochem. Pharmacol. 22, 3099-3108, 1973). The IC50 values were obtained with the aid of the “Figure P” computer program (Version 6.0, Biosoft, Cambridge, England). Km values were calculated according to Lineweaver, H. and Burk, D. (J. Am. Chem. Soc. 56, 658-666, 1934). The “Ligand” computer program (Version 4, Biosoft, England) was used to show KD values.

[3] = system: NA reuptake; experiment: Inhibition of NA reuptake in rat brain synaptosomes (P2 fraction, hypothalamus); format: biochemical; conditions: for Ki: hypothalamus, Ki from IC50 by Cheng-Prusoff
Procedure: as §1, §2, §3, §4, §5

[4] = system: phenylquinone-induced writhing reactions; experiment: Analgesic activity in the writhing test in the mouse; format: in vivo
Procedure: c) Studies of Analgesic Activity in the Writhing Test in the Mouse
The writhing test in the mouse is a modification of the method according to Hendershot L C, Forsaith, J, J Pharmacol Exp Ther 125: 237-240 (1959).
0.3 ml/animal of a 0.02% aqueous phenylquinone solution, with the addition of 5% ethanol, is administered intraperitoneally to the animals as pain stimulus. This solution is administered 30 minutes (test substance p.o.) or 10 minutes (test substance i.v.) after administration of the test substance. The pain-induced stretching movements (so-called writhing reactions=straightening of the body with extension of the rear extremities) are recorded 5 to 20 minutes after the administration of phenylquinone. The animals treated with the test substance are compared with a control group that received physiological saline. Size of the group n=10.

[5] = system: formalin-induced nociceptive behaviour (chronic pain component); experiment: Analgesic activity in the formalin test in the mouse; format: in vivo
Procedure: b) Studies of Analgesic Activity in the Formalin Test in the Mouse The formalin test (Dubuisson, D. and Dennis, S. G., 1977, Pain, 4, 161-174) represents a model for acute and chronic pain. In the studies presented here, the chronic pain component was evaluated. By means of a single formalin injection into the dorsal side of a rear paw, a biphase nociceptive reaction is induced in freely mobile test animals; the reaction is assessed by observing three markedly different behaviour patterns. Formalin is injected subcutaneously in a volume of 20 μl and a concentration of 1% into the dorsal side of the right rear paw of each animal. The specific behavioural changes differing from normal behaviour (score 0), such as lifting (score 1) and shaking of the paw (score 2), as well as biting and licking reactions (score 3), are observed and recorded continuously at 3-minute intervals for 60 minutes after the formalin injection. […] The size of the group was 10 animals (n=10). On the basis of the PR calculations, the activity of the substance was determined in percent as the change relative to a control. The ED50 was determined by means of regression analysis.

SMILES	melting point	Shortening of the phase of immobility, forced swimming test (in words) [1]	Relative duration of the phase of immobility versus control ([1]; 10 mg/kg)	Relative duration of the phase of immobility versus control ([1]; 21.5 mg/kg)	Relative duration of the phase of immobility versus control ([1]; 31.6 mg/kg, ***p < 0.001)	Relative duration of the phase of immobility versus control ([1]; 46.4 mg/kg, ***p < 0.001)	Inhibition of 5-HT reuptake (in words) [2]	Ki [2]	Inhibition of NA reuptake (in words) [3]	Ki [3]	Inhibition of the nociceptive behaviour, writhing test (in words) [4]	ED50 ([4]; i.v., phenylquinone i.p.)	Inhibition of the nociceptive behaviour, formalin test (in words) [5]	ED50 ([5]; iv, chronic pain component)
CN(C)CC1=C(Cc2ccc(Cl)cc2)CCC1.Cl	191 °C	–	–	–	–	–	–	–	–	–	–	–	–	–
CN(C)CC1=C(Cc2ccc(Cl)cc2)CCCCC1.Cl [Example 1, [2-(4-Chlorobenzyl)-cyclohept-1-enylmethyl]-dimethylamine; hydrochloride]	–	significant shortening of the phase of immobility	+9%	−34%	−67%***	−76%***	dose-dependent inhibition	3 nM	dose-dependent inhibition	30 nM	dose-dependent inhibition	3.04 mg/kg	dose-dependent inhibition	4.71 mg/kg
CN(C)CC1=C(Cc2ccc(Cl)cc2)CCCCCC1.Cl [Example 2b, [2-(4-chlorobenzyl)-cyclooct-1enylmethyl]-dimethylamine; hydrochloride]	234 to 237 °C	–	–	–	–	–	dose-dependent inhibition	30 nM	dose-dependent inhibition	340 nM	–	–	–	–
